Six compounds from patent US9598407B2, “Antibacterial piperidinyl substituted 3,4-dihydro-1H-[1,8]naphthyridinones” (JANSSEN SCIENCES IRELAND UC, priority 2011, dated 2017) can be followed below.

Converted amounts (≈) assume the structure as drawn.

In one data set the test system is Human HelaM cells. Kind of data set: Cytotoxicity MTT assay (TOX HELAM 222.125). Format: cell-based. Conditions: 72 hours. The method, then: Cytotoxicity of the compounds was evaluated using the MTT assay. Human HelaM cells grown in 96-well plates were exposed to serial dilutions of the tested compounds (final volume of 0.2 ml) and incubated for 72 hours at 37° C. and 5% CO2 Inhibitors are typically varied over the range of 25 to 0.8 μM. The final DMSO concentration in the assay is 0.5%. MTT (3-(4,5-Dimethylthiazol-2-yl)-2,5-diphenyltetrazolium bromide, a tetrazole) was added and reduced to purple formazan only in living cells. Solubilization of the formazan crystals was achieved by adding 100 μl 2-propanol. Cell viability was determined by measuring the absorbance of the reduced formazan, giving a purple color, at 540 nm and 690 nm. The absorbance measured at 690 nm was automatically subtracted from the absorbance at 540 nm, to eliminate the effects of non-specific absorption. The percent cytotoxicity achieved by the compounds was calculated according to standard methods. Cytotoxicity is reported as CC50, the concentration that causes a 50% reduction in cell viability.
The results are depicted in the table D2 below (TOX HELAM).

Data set [1] deals with S. aureus ATCC 29213 FabI (Staphylococcus aureus (strain MRSA252), UniProt Q6GI75). Kind of data set: Staphylococcus aureus FabI enzyme inhibition assay. Format: biochemical. Conditions: 30 minutes at room temperature, pH 6.5. The procedure: D.1 FabI Enzyme Inhibition: Staphylococcus aureus FabI Enzyme Inhibition Assay
FabI enzyme inhibition assays were carried out in half-area, 384-well microtitre plates. Compounds were evaluated in 40-μl assay mixtures containing 100 mM NaADA, pH 6.5 (ADA=N-[2-acetamido]-2iminodiacetic acid), 250 μM crotonoyl-CoA, 625 μM NADH and 50 μg/ml S. aureus ATCC 29213 FabI Inhibitors were typically varied over the range of 50 to 0.39 μM. The reaction mixtures were incubated for 30 minutes at room temperature and the reaction was stopped by adding 200 mM Tris buffer (pH 9.0) to create a pH-shift. The consumption of NADH was monitored by measuring the change in absorbance at […]. By comparing sample readings to those of negative (absence of compound) and positive (absence of enzyme) controls, the percent inhibition of enzymatic activity of the compounds was determined A best-fit curve is fitted by a minimum of squares method. From this an IC50-value (expressed in μg/ml), resulting in 50% inhibition of enzymatic activity, was obtained.

In a further data set the test system is S. aureus. Kind of data set: Antibacterial susceptibility testing, IC90 with 10% human serum (STA + 10% HS 361.169). Format: cell-based, Staphylococcus aureus. Conditions: S. aureus with 10% human serum. The method, then:
(§1) The following bacteria were used: Staphylococcus aureus ATCC 29213, methicillin-resistant Staphylococcus aureus (MRSA) ATCC 700788 and Escherichia coli ATCC 35218. The bacteria used in this study were grown overnight in flasks containing 100 ml Mueller-Hinton broth (Difco cat. nr. 0757-17) in sterile de-ionized water, with shaking, at 37° C. Stocks were store at −70° C. until use.
(§2) Bacteria were incubated on a tryptic soy agar plate containing 5% sheep blood (Becton Dickinson cat. nr. 254053) for 18-24 hours at 35° C. in aerobic conditions (first passage). For the second passage, fresh Mueller-Hinton broth is inoculated with 5-10 colonies and grown overnight at 35° C. until turbidity (reaching log-phase) in aerobic conditions is reached. The bacterial suspension is then adjusted to 0.5 McFarland density and further diluted 1:100 in Mueller Hinton broth medium. This is used as inoculum.
(§3) MIC assays were performed by the broth microdilution method in a 96-well format (flat-bottom microtitre plates) with a final volume of 0.1 ml Mueller Hinton broth containing two-fold serial dilutions of compounds and inoculated with 5×10^5 CFU/ml of bacteria (standard inoculum size according to CLSI guidelines). Inhibitors are typically varied over the range of 63 to 0.49 μM. The final DMSO concentration in the assay was 1.25% (maximum tolerable DMSO concentration=6%). In the assays where the effect of human serum on the activity of the compounds against S. aureus was tested, human serum was added at a final concentration of 10%. The plates were incubated at 35° C. for 16-20 hours. At the end of incubation the bacterial growth was quantified fluorometrically. For this, resazurin was added to all wells and the plates were re-incubated. The incubation time is dependent on the type of bacteria. A change in color from blue to pink indicated the growth of bacteria. The fluorescence was read in computer-controlled fluorometer (Fluoroskan Ascent FL, Labsystems) at an excitation wavelength 540 nm and an emission wavelength of 590 nm. The % growth inhibition achieved by the compounds was calculated according to standard methods. The IC90 (expressed in μg/ml) was defined as the 90% inhibitory concentration for bacterial growth. A panel of reference compounds were simultaneously tested for QC approval.
The results are depicted in the table D2 below (STA+10% HS).

The subject of data set [2] is Staphylococcus aureus ATCC 29213. Kind of data set: Antibacterial susceptibility testing, IC90 determination (STA 361.159). In kind it is cell-based. Conditions: STA ATCC 29213; 90% inhibitory concentration for bacterial growth. The method, then:
D.2 In Vitro Method for Testing Compounds for Antibacterial Activity Against Various Bacterial Strains Preparation of Bacterial Suspensions for Susceptibility Testing
as §1, §2
Antibacterial Susceptibility Testing: IC90 Determination
as §3

Data set [3] is described as follows: In vivo pharmacokinetic and oral bioavailability. Conditions: male Swiss mice. The procedure: The in vivo pharmacokinetics and oral bioavailability of the compound of the examples was/is investigated in male Swiss mice (fed) following single intravenous (i.v.) bolus and oral (p.o.) administration. For the i.v. and p.o. solution formulations, the compound was/is dissolved in a 20% HP-β-CD solution. The pH of the formulations was/is around pH 4. All i.v. formulations were isotonic.

The next data set has as its system E. coli tolC mutant. Nature of the data set: Antimicrobial spectrum, CLSI broth microdilution MIC. Conditions: MHB. In kind it is cell-based, Escherichia coli. The procedure: (§4) Minimum Inhibitory Concentrations (MICs) were determined in accordance with the Clinical and Laboratory Standards Institute (CLSI) methodology against aerobic bacteria (CLSI M07-A8) (see Clinical and Laboratory Standards Institute. 2009. Methods for dilution antimicrobial susceptibility tests for bacteria that grow aerobically. CLSI document M07-A8, Vol. 29, No. 2.) by the broth microdilution method with cation-adjusted Mueller-Hinton broth (CA-MHB) medium for the majority of organisms, except for Haemophilus influenza, where Haemophilis test medium (HTM) broth was used. Descriptions of the individual organisms can be found in the table. Where possible, ATCC standard strains were tested.
(§5) The inoculum density for the susceptibility testing was standardized to give a final inoculum of approximately 5×10^5 CFU/mL.
(§6) Stock solutions of the compounds were prepared in DMSO at concentrations of 1 mg/mL. Linezolid was prepared in DMSO at a concentration of 2 mg/mL. Stock solutions of all compounds were diluted into CA-MHB to give a range of two-fold dilutions, depending upon the sensitivity of the organism being tested.

The test system of a further data set is E. coli ATCC 25922. The data set is described as above. The following applies: reference strain, MHB. In kind it is cell-based, Escherichia coli. The method, then: as §4, §5, §6
The next data set has as its system S. aureus ATCC 29213. The description is as above. In kind it is cell-based, Staphylococcus aureus. Conditions: reference strain MSSA, MHB. The method, then: as §4, §5, §6
A further data set has as its system S. aureus NRS119. Described as above. In kind it is cell-based, Staphylococcus aureus. Conditions: LZD-R, MHB. The method, then: as §4, §5, §6
A further data set relates to S.aureus NRS121. Described as above. The following applies: LZD-R, MHB. Format: cell-based, Staphylococcus aureus. The method, then:
as §4, §5, §6

For another data set, the system named is S. aureus NRS120. The description is as above. Format: cell-based, Staphylococcus aureus. Conditions: LZD-R, MHB. The method, then:
as §4, §5, §6

The subject of another data set is S. aureus ATCC 43300. Described as above. Conditions: reference strain MRSA, MHB. In kind it is cell-based, Staphylococcus aureus. The method, then: as §4, §5, §6
The next data set deals with H. influenza ATCC 49247. The data set is described as above. Format: cell-based, Haemophilus influenzae. Conditions: HTM broth. The procedure:
as §4, §5, §6

A further data set concerns M. catarrhalis ATCC 8176. The description is as above. In kind it is cell-based, Moraxella catarrhalis. The following applies: b-lactamase negative, MHB. The method, then:
as §4, §5, §6

Take `O=C1CCc2cc(/C=C/C(=O)N3CC=C(c4ccoc4)CC3)cnc2N1` [compound 10]: the “TOX HELAM (222.125) CC50” value in the data set on Human HelaM cells was greater than 8.776 µg/mL. Also, the “FabI IC50” value in [1] stood at 0.48 µg/mL. The “STA + 10% HS (361.169) IC90” value in the data set with S. aureus is 20.34 µg/mL. Also, the “STA (361.159) IC90” value in data set [2] was determined as 10.43 µg/mL.

Consider `O=C1CCc2cc(/C=C/C(=O)N3CCC(COc4ccc(F)cc4)CC3)cnc2N1` [compound 34], for which the “TOX HELAM (222.125) CC50” value with Human HelaM cells was greater than 10.2852 µg/mL. Also, the “FabI IC50” value in data set [1] was 0.47 µg/mL. Moreover, the “STA + 10% HS (361.169) IC90” value in the data set with S. aureus is 12.51 µg/mL. In data set [2], the “STA (361.159) IC90” value was found to be 9.94 µg/mL.

Turning to `O=C1CCc2cc(/C=C/C(=O)N3CCC(c4ccccc4)CC3)cnc2N1` [compound 4], in the data set on Human HelaM cells, the “TOX HELAM (222.125) CC50” value was greater than 9.079 µg/mL. The “FabI IC50” value in data set [1] came to 0.29 µg/mL. In addition, the “STA + 10% HS (361.169) IC90” value in the data set with S. aureus came to 4.60 µg/mL. Moreover, in data set [2], the “STA (361.159) IC90” value is 4.99 µg/mL.

With `O=C1CCc2cc(/C=C/C(=O)N3CCC(Cc4cccs4)CC3)cnc2N1` [compound 37], the “TOX HELAM (222.125) CC50” value with Human HelaM cells is 19.12 µg/mL. The “FabI IC50” value in data set [1] was determined as 0.50 µg/mL. In addition, the AUC0-inf in data set [3] (i.v., 2.5 mg/kg) came out at 7464 ng·h/mL; in data set [3] (p.o., 10 mg/kg), 21394 ng·h/mL. For the same compound, the “Half life (t1/2)” value came out at 2.7 h in [3] (i.v., 2.5 mg/kg) and 3.2 h in data set [3] (p.o., 10 mg/kg). The “Plasma clearance Cl” value in [3] (i.v., 2.5 mg/kg) was 5.5 mL/min/kg. The Vdz in data set [3] (i.v., 2.5 mg/kg) is 1.3 L/kg. The compound further gave a C0 in data set [3] (i.v., 2.5 mg/kg, 20% HP-β-CD solution) of 2929 ng/mL. In [3] (p.o. 10 mg/kg vs i.v. 2.5 mg/kg), this compound showed an Oral bioavailability of 72%. The Tmax in data set [3] (p.o., 10 mg/kg) came out at 2.0 h. In addition, the Cmax in data set [3] (p.o., 10 mg/kg, 20% HP-β-CD solution) came to 2950 ng/mL. Besides, in the data set on S. aureus, the “STA + 10% HS (361.169) IC90” value was 0.36 µg/mL. Further, in data set [2], the “STA (361.159) IC90” value was 0.30 µg/mL. In addition, the MIC90 was greater than 8 µg/mL in the data set with E. coli tolC mutant; greater than 8 µg/mL in the data set with E. coli ATCC 25922; 0.125 µg/mL (≈ 0.328 µM) in the data set with S. aureus ATCC 29213; 0.125 µg/mL (≈ 0.328 µM) with S. aureus NRS119; 0.125 µg/mL (≈ 0.328 µM) with S.aureus NRS121; 0.125 µg/mL (≈ 0.328 µM) in the data set with S. aureus NRS120. The figures for the MIC90 in the data set on S. aureus ATCC 43300, against H. influenza ATCC 49247 and against M. catarrhalis ATCC 8176 were 0.125 µg/mL (≈ 0.328 µM), greater than 8 µg/mL and 1 µg/mL (≈ 2.62 µM), respectively.

Take `COc1ccccc1C1=CCN(C(=O)/C=C/c2cnc3c(c2)CCC(=O)N3)CC1` [compound 2]: in the data set with Human HelaM cells, the “TOX HELAM (222.125) CC50” value is greater than 9.783 µg/mL. Also, in data set [1], the “FabI IC50” value turned out to be 0.32 µg/mL. In addition, in the data set with S. aureus, the “STA + 10% HS (361.169) IC90” value turned out to be 2.99 µg/mL. In addition, in [2], the “STA (361.159) IC90” value amounted to 1.97 µg/mL.

With `O=C1CCc2cc(/C=C/C(=O)N3CC=C(c4ccco4)CC3)cnc2N1` [compound 9], in the data set on Human HelaM cells, the “TOX HELAM (222.125) CC50” value was greater than 8.776 µg/mL. In addition, the “FabI IC50” value in data set [1] stood at 0.34 µg/mL. For the same compound, in the data set on S. aureus, the “STA + 10% HS (361.169) IC90” value was found to be 2.65 µg/mL. Besides, the “STA (361.159) IC90” value in data set [2] came to 2.91 µg/mL.
